Data on two molecules can be found in patent US9844526B2 (priority 2015, dated 2017).

The subject of data set [1] is platelets. The following applies: 10 mg daily for three months; cited from earlier work.
A further data set concerns vascular function. The following applies: cited from earlier work.
In data set [2] the test system is platelets. The conditions noted are these: in vitro, 10-1,000 μM, dose dependent; cited from earlier work.
The test system of another data set is eNOS. The following applies: 1 μM; human umbilical vein endothelial cells; cited from earlier work.
Another data set deals with cyclooxygenase. The following applies: in vitro; cited from earlier work.
Data set [3] is described as follows: Plasma resveratrol concentrations after capsule intake (HPLC). The format is in vivo, human. The conditions noted are these: one hour study, median (interquartile range), baseline 0.00 (0.00, 0.00). The procedure:
The study included two separate investigations: a one hour study and a two hour study (FIG. 1). […] The two hour study was designed to fully assess and compare the responses to trans-res and ResArgin™.
Participants were randomized by block design to consumed trans-res or ResArgin™ in random order. Randomization was performed by the study coordinator following a predetermined plan formulated via a web-based random number generator. […] The study included two separate investigations: a one hour study and a two hour study (FIG. 6). During each study visit, which took place after an overnight fast, a baseline measurement of PAT and a blood sample were collected, followed by consumption of the assigned treatment. During the one hour study, PAT measurements and blood samples were collected thirty and sixty minutes after the capsules were consumed. During the two hour study, a PAT measurement and blood sample were taken two hours after the capsules were consumed.
Briefly, plasma was treated with acidified methanol [0.5% (v/v) of acetic acid in methanol; precooled to −20° C.] containing an appropriate recovery standard. The mixture was stored at −80 C for 12 hours to allow for cryo-assisted protein precipitation, and then centrifuged for 15 min at 16,500×g. […]

In data set [4] the test system is Healthy postmenopausal women. Kind of data set: Microvascular function by peripheral arterial tonometry (Endo-PAT2000), randomized double-blind crossover trial. The class given is in vivo, human. The conditions noted are these: combined data.
Data set [5] deals with platelets. Put plainly: Platelet function by whole blood/optical lumi-aggregometer after capsule intake. The class given is in vivo, human. As for the experimental part: Participants were randomized by block design to consumed trans-res or […] random order. Randomization was performed by the study coordinator following a predetermined plan formulated via a web-based random number generator. […] The study included two separate investigations: a one hour study and a two hour study (FIG. 6). During each study visit, which took place after an overnight fast, a baseline measurement of PAT and a blood sample were collected, followed by consumption of the assigned treatment. During the one hour study, PAT measurements and blood samples were collected thirty and sixty minutes after the capsules were consumed. During the two hour study, a PAT measurement and blood sample were taken two hours after the capsules were consumed. Platelet reactivity during clinical screening was assessed by a PFA-100 (Siemens, Deerfield, Ill.), which measures platelet function by simulating arterial hemostasis under blood flow shear stress. During the intervention, platelet function was assessed by a whole blood/optical lumi-aggregometer (Chrono-log Model 700, Havertown, Pa.). Briefly, platelet aggregation was measured via electrical impedence (or electrical resistance), whereas lumi-aggregometry was used to examine aggregation together with adenosine triphosphate (hereafter, “ATP”) release, which is determined with firefly luciferin-luciferase system. […] One of the following agonists was used to stimulate platelets: collagen ([…]), AA (10 μL) or ADP ([…]). ATP release was measured only when platelets were activated with ADP. The aggregation was measured over a period of six minutes, following the addition of an agonist.

Data set [6] concerns platelets. The conditions noted are these: 4 mg/kg/day; cited from earlier work.
[7] abbreviates: 10 mg per day for three months, stable coronary artery disease patients.
[8] abbreviates: platelets stimulated with 1 μL collagen, one hour post consumption of 90 mg.
[9] abbreviates: platelets stimulated with 10 μL arachidonic acid, one hour after intake of 90 mg.

Entries after “also recorded” stand apart in the source; their conditions may differ. Where two headings read alike, the source gives them in different places.

`Oc1ccc(/C=C/c2cc(O)cc(O)c2)cc1` [trans-res, Trans-resveratrol]: the Platelet aggregation entry in the data set on platelets [1] and in the data set on platelets [2] was “significantly reduced” in each case. Besides, the FMD response entry with vascular function (setting [7]) is given as “significant improvement”; in the data set on vascular function (75 mg daily for six weeks) it was “significant increase”; in the data set on vascular function (75 mg, one hour post-consumption), “significant increase”; in the data set with vascular function (single dose of 30, 90 and 270 mg, one hour after consumption) it was “increase”. In the data set with eNOS, the “Expression of eNOS” value was “up-regulated”. Also, in the data set with cyclooxygenase, the “Cyclooxygenase (COX) activity” value was “inhibit”. Further, the Plasma resveratrol concentration in data set [3] (30 minutes after intake of 90 mg) was 2.04 (0.82, 2.54); in data set [3] (60 minutes after intake of 90 mg) it was 2.65 (1.69, 3.44). In addition, the “AI@75 (AI normalized to a heart rate of 75 beats per minute), change” value in [4] (90 mg) is given as “No significant changes”. In addition, in data set [4] (1 hour after intake, ResArgin baseline 2.119±0.085), the RHI entry is reported as “not observed”. The “FRHI, change from baseline” value in data set [4] (one and two hours after intake) is on record as “No differences were observed; also recorded: no changes”. Further, the “Slope, change from baseline” value in the data set with platelets [5] (lumi-aggregometry with 10 μL ADP, one hour post consumption of 90 mg) is “significant decrease”; with platelets [5] (setting [8]), “not”. In the data set on platelets [5] (setting [8]), the “Lag time, change from baseline” value is listed as “significant increase”. In addition, the “Area under the curve (AUC) of aggregation, change from baseline” value in the data set with platelets [5] (setting [9]) was “no changes”. In addition, in the data set on platelets [5] (setting [9]), the “Maximum aggregation, change from baseline” value is given as “no changes”. The “Platelet function, change from baseline” value with platelets [5] (stimulation with 5 μL collagen, one hour post consumption of 90 mg) is on record as “no significant changes”.
As to `Oc1ccc(C=Cc2cc(O)cc(O)c2)cc1` [Resveratrol, 3,5, 4′-trihydroxystilbene], the FMD response result with vascular function (setting [7]) and with vascular function (75 mg daily for six weeks) was “enhanced” throughout. Also, the ADP-induced platelet aggregation entry in the data set on platelets [6] is recorded as “inhibited”.
